Data on one substance can be found in patent US9539196B2, “Compositions comprising a SIRT6 activator and a DNA repair enzyme” (ELC Management LLC, priority 2014, dated 2017).

Read-outs that look alike come from different tables or passages of the source. Ends that are not written are not given here.

Assay [1] has as its system Normal Human Epidermal Keratinocytes (NHEK). The experiment in a line: Comet assay of DNA fragmentation in NHEK exposed to UVB (Test Example 1). The settings on record: FIG. 1. It counts as cell-based. The protocol:
This study used control samples and three types of test samples. Control samples were neither treated with the peptide, nor exposed to UVB radiation. Type 1 samples were treated with the peptide, as described below, but not exposed to UVB radiation. Type 2 samples were not treated with the peptide, but were exposed to UVB radiation. Type 3 samples were treated with the peptide, as described below, and exposed to UVB radiation. SIRT6 activating peptide (SEQ ID No. 1) in powdered form was prepared in solution at 50 ppm.
For all test samples, Normal Human Epidermal Keratinocytes (NHEK) were seeded on Trevigen Flare™ slides at 8,000 cells/spot for DNA fragmentation analysis. Cells were incubated at 37° C., 95% humidity and 5% CO2 in cell culture media for 24 hours. Type 1 and type 3 samples were treated with the 50 ppm powdered peptide solution at 3% of the cell culture media (equivalent to 0.00015% of peptide in solution), and all samples were incubated for 48 hours. Thereafter, the cell culture media was removed from all samples and replaced with 100 μl of Dulbecco's Phosphate Buffered Saline. […]
Following the six hour incubation, the sample cells were washed with phosphate buffered saline. […] The tail moments were analyzed with the Comet Score software from TriTek, Corp (Sumerduck, Va.). […]

In another assay the test system is sirtuin 6. Conditions: cited from earlier work; for sirtuin 6 expression: short-term cultures.
The subject of another assay is SIRT6. Conditions: Normal Human Epidermal Keratinocytes (NHEK); cited from earlier work.

For the substance “Gly-Ala-Gly-Val-Ser-Ala-Glu-NH2 (GAGVSAE-NH2) [SEQ ID No. 1]”, the “DNA fragmentation (comet tail moment)” value in assay [1] (type 1 samples: NHEK treated with peptide (0.00015% in solution), not irradiated) was “comparable to the control samples”; in assay [1] (type 3 samples: NHEK pre-treated with peptide 48 h (0.00015%), 20 mJ/cm^2 UVB, post-treated 6 h), “comparable to the control samples”. The “sirtuin 6 expression stimulation effect, long term” value in the assay with sirtuin 6 (long term cultures) is on record as “maintained for the long term”. The “sirtuin 6 expression” value with sirtuin 6 (normal human fibroblasts) and with sirtuin 6 (normal human keratinocytes) was “increase sirtuin 6 expression very significantly” throughout. Moreover, the SIRT6 expression entry in the assay on SIRT6 is “dose dependent increase in SIRT6 expression”.
